By kinetic solubility is commonly meant the concentration staying in solution when a stock, usually in DMSO, is diluted into the medium.

≈ marks a conversion by molar mass, not a printed value. Where only a bound is given, the exact number is not on record here.

For the data set the following is noted: buffer; pH 7.4; 200.0 µM.
With `Cc1cscc1NC(=O)/C=C/C(=O)O`, the solubility (kinetic) turned out to be 0.0315 mg/mL (≈ 149 µM).

Consider `O=C(O)c1ccc(-c2nc3scc(-c4ccccc4)c3c(=O)[nH]2)cc1`, for which the solubility (kinetic) was over 0.0523 mg/mL.

In the case of `O=C(NC(=S)Nc1ccccc1Br)c1ccco1`, the kinetic solubility was 0.0031 mg/mL (≈ 9.53 µM).

`NC(=O)NC(=O)CN1c2cccc3cccc(c23)S1(=O)=O`: the solubility (kinetic) amounted to 0.0037 mg/mL (≈ 12.1 µM).

The compound `Cl.OC(CNCc1ccccc1)COCc1ccc(Cl)cc1` (stereo not given) returned a kinetic solubility of 0.0342 mg/mL.

`Brc1ccccc1OCCN1CCCC1` gave a kinetic solubility of 0.032 mg/mL (≈ 118 µM).

As to `Cc1cc(C)c(NC(=O)c2ccc3nccnc3c2)c(C)c1`, the kinetic solubility is 0.0415 mg/mL (≈ 142 µM). This solubility kinetic and that of the compound before are within 1.5-fold of each other.

`C=CCNc1nc2c(c(=O)[nH]c(=O)n2C)n1CCOc1ccccc1`: the solubility (kinetic) stood at 0.0033 mg/mL (≈ 9.67 µM).

Take `CC(=O)c1ccc2c(c1)c(C#N)c1ccccc1[n+]2[O-]`: the solubility (kinetic) worked out at 0.0017 mg/mL (≈ 6.48 µM).

The compound `O=[N+]([O-])c1ccc(S(=O)(=O)c2cccc(C(F)(F)F)c2)nc1` gave a solubility (kinetic) of 0.0044 mg/mL (≈ 13.2 µM). Compared with the last compound, the solubility kinetic is about 2.6-fold higher.

For `O=C(NC1CCCCC1)c1cc2cc(Br)ccc2o1`, the kinetic solubility is under 0.0007 mg/mL.

Turning to `CCOC(=O)C1CCN(Cc2cc(=O)oc3cc(C)ccc23)CC1`, the solubility (kinetic) was found to be 0.0431 mg/mL (≈ 131 µM).

`COc1ccc(S(=O)(=O)N(C)CC(=O)NCCN2CCOCC2)cc1` had a kinetic solubility of 0.0515 mg/mL (≈ 139 µM).

Consider `Cn1c(-c2ccncc2)nc2ccccc21`, for which the kinetic solubility was over 0.0314 mg/mL.

With `O=C(CCSCc1ccccc1F)NCc1cccs1`, the solubility (kinetic) is over 0.0464 mg/mL.

The compound `CC(CN1CCCCC1)OC(=O)COc1ccc(Cl)cc1.Cl` (stereo not given) yielded a kinetic solubility of over 0.0522 mg/mL.

The compound `Cc1onc(-c2c(Cl)cccc2Cl)c1C(O)c1ccccc1` (stereo not given) returned a solubility (kinetic) of over 0.0501 mg/mL.

Regarding `CCOc1ccc(S(=O)(=O)NCc2ccccn2)c(C)c1C`, the kinetic solubility was over 0.0481 mg/mL.

Compound `Cc1cc(C)cc(-c2nnc(SCC(=O)NC3CC3)o2)c1` gave a solubility (kinetic) of over 0.0455 mg/mL.

In the case of `O=C(COC(=O)/C=C/c1ccccc1[N+](=O)[O-])Nc1ccc2[nH]c(=O)[nH]c2c1`, the solubility (kinetic) worked out at 0.01 mg/mL (≈ 26.2 µM).

`COC(=O)NCC(c1ccco1)N1CCN(c2ccc(OC)cc2)CC1` (stereo not given) showed a solubility (kinetic) of over 0.0539 mg/mL.

For `CC1CC(C)(C)NC(=S)N1CCCC(=O)Nc1ccc(Cl)cc1` (stereo not given), the solubility (kinetic) amounted to 0.0367 mg/mL (≈ 104 µM).

As for `CCC(=O)OCCn1c(=O)c2ccccc2c2ccccc2c1=O`, the solubility (kinetic) is over 0.0485 mg/mL.

With `O=C1OCCN/C1=C\C(=O)c1ccccc1`, the kinetic solubility is over 0.0326 mg/mL.

Consider `COc1cccc(C(=O)NC(C)CCc2ccccc2)c1` (stereo not given), for which the solubility (kinetic) is 0.036 mg/mL (≈ 127 µM).

For the compound `CCOC(=O)c1ccc2[nH]c3c(c2c1)CCCC3O` (stereo not given), the kinetic solubility was over 0.0389 mg/mL.

The compound `CCCn1c(N)c(N(CCOC)C(=O)CSc2c(Cl)cccc2Cl)c(=O)[nH]c1=O` came in with a solubility (kinetic) of 0.053 mg/mL (≈ 115 µM).

In turn, `CCCC/C=C1\CCc2c([nH]c3ccccc23)C1=O` returned a solubility (kinetic) of 0.002 mg/mL (≈ 7.89 µM). Compared with the last compound, the solubility kinetic is about 26-fold lower.

`N#Cc1c(NCCCO)nc(NCc2ccccc2)c2c1CCN(Cc1ccccc1)C2`: the kinetic solubility came out at 0.0077 mg/mL (≈ 18 µM).

Turning to `Cc1cc(NC(=O)Cc2ccc(Br)cc2)no1`, the solubility (kinetic) is 0.0018 mg/mL (≈ 6.1 µM).

As for `CN(C)C(=S)c1ccccc1`, the kinetic solubility was 0.0214 mg/mL (≈ 129 µM). This solubility kinetic is about 12-fold higher than that of the compound before.

`CC(C)c1ccc(S(=O)(=O)N2CCN(C(=O)CN3C(=O)c4ccccc4C3=O)CC2)cc1` had a kinetic solubility of 0.0031 mg/mL (≈ 6.81 µM).

`S=C(Nc1cccnc1)NC1CC2CCC1C2` (stereo not given) displayed a solubility (kinetic) of over 0.0371 mg/mL.

Turning to `CCCCn1c(O)c(C(C)=NCc2ccco2)c(=O)[nH]c1=O`, the solubility (kinetic) was 0.0091 mg/mL (≈ 29.8 µM).

With `COc1ccc(OC)c(NC(=O)CS(=O)(=O)Cc2ccccc2)c1`, the kinetic solubility came to 0.0031 mg/mL (≈ 8.87 µM).

In turn, `Cc1ccc(-n2c(C)c(C)c3c(NCCN(C)C)ncnc32)cc1` gave a solubility (kinetic) of 0.0374 mg/mL (≈ 116 µM).

`Cc1cccc(N2CCN(C(=O)CCc3nc4ccccc4c(=O)[nH]3)CC2)c1C` registered a solubility (kinetic) of 0.002 mg/mL (≈ 5.12 µM).

The compound `Cc1[nH]c2ccccc2c1C(c1ccccn1)N1CCCC1` (stereo not given) yielded a solubility (kinetic) of 0.0399 mg/mL (≈ 137 µM).

`CCCCN=C1CC(C)(C)CC(=O)/C1=C(/O)CCC` displayed a kinetic solubility of over 0.0398 mg/mL.

`N#Cc1ccc(C(=O)NN2C(=O)NC3(CCCCC3)C2=O)cc1` had a kinetic solubility of over 0.0468 mg/mL.

With `CC(=O)c1c(C)[n+]([O-])c2ccc3c(non3O)c12`, the kinetic solubility is 0.0255 mg/mL (≈ 103 µM).

Turning to `CN1CCN(CCn2c(=S)[nH]c3ccccc3c2=O)CC1`, the kinetic solubility is over 0.0457 mg/mL.

As to `c1ccc(-c2cc(-c3ccccc3)on2)cc1`, the kinetic solubility is under 0.0005 mg/mL.

On to `CCOC(=O)CC1COc2ccccc2N1C(=O)c1ccc(F)cc1` (stereo not given), for which the kinetic solubility came to 0.047 mg/mL (≈ 137 µM).

Consider `CCCOc1ccc(NC(=O)c2cc3cc(C)ccc3[nH]2)cc1`, for which the kinetic solubility is under 0.0003 mg/mL.

With `CC(C)c1ncc(C(O)c2ccccc2)n1C` (stereo not given), the kinetic solubility was over 0.0345 mg/mL.

The compound `C=CCSc1nc(C)cc2c1C(=O)OC2` yielded a kinetic solubility of over 0.0332 mg/mL.

In turn, `Cc1ccccc1C(=O)OCC(=O)NCC1COc2ccccc2O1` (stereo not given) showed a kinetic solubility of 0.0409 mg/mL (≈ 120 µM).

For `COc1cc(/C=C/C(=O)OCC(=O)NCc2ccc(F)cc2)ccc1O`, the solubility (kinetic) was over 0.0539 mg/mL.

The compound `CC1(C)CN=C(N(C(=O)Nc2ccccc2)c2ccccc2F)S1` had a kinetic solubility of 0.0083 mg/mL (≈ 24.2 µM).

Turning to `COc1ccccc1NC(=O)COC(=O)CNC(=O)C1CCCCC1`, the kinetic solubility is over 0.0523 mg/mL.

The compound `COCCn1c(N)c(C(=S)NC(=O)c2cccs2)c(=O)[nH]c1=O` returned a solubility (kinetic) of 0.0346 mg/mL (≈ 97.6 µM).

`CCOc1ccc(S(=O)(=O)NC(=O)c2ccccc2)cc1` came in with a kinetic solubility of over 0.0458 mg/mL.

Compound `CCO/C=C1\C(=O)N(c2ccc(OCC)cc2)C(=O)c2ccccc21` showed a kinetic solubility of over 0.0506 mg/mL.

The compound `Cc1[nH]c(=O)[nH]c(=O)c1S(=O)(=O)Nc1ccc(F)c(Cl)c1` registered a kinetic solubility of over 0.0501 mg/mL.

The compound `O=C(C1CCCCC1)N1CC(=O)N2CCc3ccccc3C2C1` (stereo not given) returned a solubility (kinetic) of over 0.0469 mg/mL.

As for `Cc1ccc(S(=O)(=O)NC2CCCCCCC2)cc1`, the solubility (kinetic) was determined as 0.0243 mg/mL (≈ 86.3 µM).

`COCCNC(=O)C(NC(=O)C1CCCCC1)C12CC3CC(CC(C3)C1)C2` (stereo not given) showed a kinetic solubility of 0.0055 mg/mL (≈ 14.6 µM).

With `O=C(NC(c1ccccc1)c1ccccc1)c1ccc(CO)cc1`, the kinetic solubility came to 0.0442 mg/mL (≈ 139 µM).

The compound `Brc1cnc2nc[nH]c2c1` yielded a kinetic solubility of over 0.0297 mg/mL.

The compound `CCC(=O)Nc1ccc2c(c1)ncn2CCc1ccccc1` showed a solubility (kinetic) of over 0.044 mg/mL.

With `NC(=O)c1[nH]cnc1N`, the kinetic solubility was over 0.0189 mg/mL.

The compound `CCCCC(=O)N1CCN(c2nc3ccc(F)cc3s2)CC1` yielded a solubility (kinetic) of 0.0442 mg/mL (≈ 138 µM).

`O=C(CN1C(=O)NC2(CCCCCCC2)C1=O)Nc1c(Cl)cccc1Cl` came in with a kinetic solubility of 0.0074 mg/mL (≈ 18.6 µM).

With `COc1ccc(C(=O)CNC2=NCCC2)cc1.Cl`, the solubility (kinetic) is over 0.0403 mg/mL.

As to `CCOC(=O)Cn1cc(C(=O)C(C)(C)C)c2ccccc21`, the solubility (kinetic) was over 0.0431 mg/mL.

Compound `Cc1ccccc1OCCn1cc(C=O)c2ccccc21` came in with a kinetic solubility of under 0.0006 mg/mL.

`Cc1nn(C)c(C)c1NS(=O)(=O)c1c(C)n[nH]c1C` had a solubility (kinetic) of over 0.0425 mg/mL.

The compound `CCN(CC)c1ccc(Nc2nc(Cl)ncc2Br)cc1` had a solubility (kinetic) of 0.0128 mg/mL (≈ 36 µM).

For `Cc1cc(C(=O)NC2CCCC2)c2ccccc2n1`, the kinetic solubility was over 0.0381 mg/mL.

The compound `CN(CC(=O)Nc1ccccc1C(F)(F)F)C(=O)C1CC1` came in with a solubility (kinetic) of over 0.045 mg/mL.

Compound `CCCN1CCN(CCCNC(=S)Nc2ccc(F)cc2)CC1` had a solubility (kinetic) of 0.049 mg/mL (≈ 145 µM).

On to `O=C(Nc1ccc(S(=O)(=O)N2CCOCC2)cc1)c1ccccc1`, for which the solubility (kinetic) is over 0.052 mg/mL.

As to `O=C(NC1CCCC1)c1cc2cc(Br)ccc2o1`, the kinetic solubility was determined as 0.0061 mg/mL (≈ 19.8 µM).

`Cc1ccc(Cn2ccc(O)c(Cc3ccccc3)c2=O)cc1` had a solubility (kinetic) of under 0.0007 mg/mL.
